Details: Liquid, Vibrating tube method

FC(F)(F)CC(F)(F)F [1,1,1,3,3,3-hexafluoropropane]
mass density [kg/m3]
Details | 293.38 K | 303.23 K | 313.1 K | 322.94 K | 333.06 K | 343.19 K | 353.23 K | 363.22 K | 373.17 K
1000 kPa | 1380.41 | 1346.41 | 1310.15 | 1272.73 | 1230.59 | – | – | – | –
3000 kPa | 1389.7 | 1356.85 | 1322.54 | 1287.52 | 1248.74 | 1207.31 | 1161.43 | – | –
5000 kPa | 1398.14 | 1366.62 | 1333.75 | 1300.71 | 1264.58 | 1226.45 | 1185.57 | 1140.64 | 1091.26
10000 kPa | 1417.22 | 1388.23 | 1358.32 | 1328.74 | 1297.09 | 1264.58 | 1230.77 | 1195.26 | 1158.13
15000 kPa | 1434.22 | 1407.04 | 1379.33 | 1352.16 | 1323.56 | 1294.29 | 1264.63 | 1233.73 | 1202.21
20000 kPa | 1449.45 | 1423.79 | 1397.77 | 1372.4 | 1345.92 | 1319.04 | 1292.08 | 1264.17 | 1236.05
25000 kPa | 1463.39 | 1438.88 | 1414.16 | 1390.33 | 1365.48 | 1340.43 | 1315.3 | 1289.66 | 1263.9
30000 kPa | 1476.18 | 1452.75 | 1429.13 | 1406.5 | 1382.82 | 1359.27 | 1335.89 | 1311.7 | 1287.72
35000 kPa | 1488.18 | 1465.54 | 1442.8 | 1421.01 | 1398.61 | 1376.24 | 1354.11 | 1331.22 | 1308.62
40000 kPa | 1499.36 | 1477.52 | 1455.53 | 1434.57 | 1413.18 | 1391.75 | 1370.58 | 1348.77 | 1327.34
50000 kPa | 1519.84 | 1499.35 | 1478.52 | 1459.05 | 1439.06 | 1419.24 | 1399.7 | 1379.54 | 1359.88
60000 kPa | 1538.35 | 1518.78 | 1499.21 | 1480.75 | 1461.86 | 1443.29 | 1424.96 | 1406.01 | 1387.66
70000 kPa | 1555.2 | 1536.58 | 1517.63 | 1500.21 | 1482.19 | 1464.6 | 1447.34 | 1429.34 | 1412.03

FC(F)CC(F)(F)F [1,1,1,3,3-pentafluoropropane]
mass density [kg/m3]
Details | 293.84 K | 303.46 K | 313.18 K | 323 K | 332.83 K | 343.01 K | 353 K | 362.91 K | 372.94 K
1000 kPa | 1352.16 | 1326.31 | 1299.2 | 1270.55 | 1240.26 | 1206.92 | – | – | –
3000 kPa | 1357.97 | 1332.8 | 1306.56 | 1278.98 | 1250.02 | 1218.46 | 1185.75 | 1150.79 | 1112.26
5000 kPa | 1363.53 | 1338.98 | 1313.51 | 1286.86 | 1259.06 | 1228.97 | 1198.11 | 1165.55 | 1130.36
10000 kPa | 1376.42 | 1353.32 | 1329.44 | 1304.71 | 1279.16 | 1251.88 | 1224.38 | 1195.94 | 1165.97
15000 kPa | 1388.34 | 1366.31 | 1343.73 | 1320.47 | 1296.63 | 1271.37 | 1246.17 | 1220.45 | 1193.67
20000 kPa | 1399.29 | 1378.22 | 1356.77 | 1334.65 | 1312.15 | 1288.45 | 1265.01 | 1241.23 | 1216.58
25000 kPa | 1409.54 | 1389.33 | 1368.61 | 1347.58 | 1326.17 | 1303.77 | 1281.67 | 1259.38 | 1236.4
30000 kPa | 1419.03 | 1399.65 | 1379.73 | 1359.46 | 1339.02 | 1317.65 | 1296.64 | 1275.54 | 1253.82
35000 kPa | 1428.09 | 1409.33 | 1390.16 | 1370.64 | 1350.93 | 1330.42 | 1310.33 | 1290.2 | 1269.55
40000 kPa | 1436.79 | 1418.45 | 1399.89 | 1381.03 | 1362.03 | 1342.2 | 1322.95 | 1303.67 | 1283.89
50000 kPa | 1452.73 | 1435.43 | 1417.82 | 1400.08 | 1382.12 | 1363.61 | 1345.62 | 1327.67 | 1309.28
60000 kPa | 1467.39 | 1450.88 | 1434.07 | 1417.12 | 1400.21 | 1382.71 | 1365.63 | 1348.77 | 1331.43
70000 kPa | 1480.99 | 1465.1 | 1449.07 | 1432.87 | 1416.64 | 1399.92 | 1383.75 | 1367.68 | 1351.23
